This is an account of results in patent US10653651B2, “Kit for treating cancer with low molecular weight components of aurin tricarboxylic acid complex” (Aurin Biotech Inc., priority 2014, dated 2020).

Like-named read-outs stand apart in the source and are kept apart here.

Broadly, the IC50 is the concentration that inhibits the measured activity by half.

Experiment [1] relates to U251 malignant glioblastoma human cell line. As to the kind of experiment: U251 cell growth in zymosan-activated human serum (MTT cell viability). It is filed as cell-based. As to conditions: 15% human serum, 1 μg/mL zymosan, 72 h, n=4, read-out: IC50, inhibition of U251 cell growth induced by zymosan-activated human serum complement. As to the method: To obtain normal serum, blood samples from healthy individuals were treated at 37° C. for 3 h to promote clotting. Samples were then centrifuged at 3,000 g for 10 min and the clear serum was harvested.
The ATAC used comprised approximately 78% ATA, 15% AQA, and 7% AHA. In addition, ATA, AQA and AHA that had been separated by size exclusion chromatography were also tested individually, their purity having been verified by mass spectrometry.
U251 cells were grown in DMEM medium containing 10% fetal bovine serum (FBS), 100 IU/mL penicillin, and 100 μg/mL streptomycin (Invitrogen™, Carlsbad, Ca.) under humidified 5% CO2 and 95% air until confluence was reached. This usually required 3 days of incubation. Aliquots of these cells (˜2×10^5 cells) were added to 24-well plates.
Experiment 1 was designed to determine the effect of ATA, AHA, AQA and ATAC on U251 cell growth in the presence of complement activated human serum. In Experiment 1(a), U251 cells were treated with various concentrations of human serum (1, 5, 7.5, 10, 12.5, 15%) in DMEM and incubated with 1 μg/mL zymosan at 37° C. for 72 h. Control U251 cells (CON) were incubated in fresh DMEM only. As a further control U251 cells were treated with 10% human serum heated at 56° C. for 30 min to heat inactivate complement (HIS) before incubation with 1 μg/ml zymosan. In Experiment 1(b), U251 cells were treated with various concentrations of ATAC, ATA, AQA and AHA (0.1, 1, 5, 10, 30, 50 μM) in DMEM with 15% human serum and incubated with 1 μg/mL zymosan at 37 ° C. for 72 h. In both Experiments 1(a) and 1(b), following incubation, cell viability was evaluated by MTT (3-[4,5-dimethylthiazol-2-yl]-2,5 diphenyl tetrazolium bromide) assays by adding MTT to the cell cultures to reach a final concentration of 1 mg/mL. […] Plates were subsequently incubated overnight at 37° C. and optical densities at 570 nm were measured by transferring 100 μL aliquots to 96-well plates and using a plate reader with a corresponding filter.

The subject of experiment [2] is DOHH2 human B-cell carcinoma cells. As to the kind of experiment: Lactic dehydrogenase release from DOHH2 cells. It is filed as cell-based. As to the method:
(§1) Experiment 4 was designed to confirm apoptotic cell death of U251 cells induced by ATA, AQA, AHA, and ATAC by measuring release of lactic dehydrogenase into the cell medium. For serum lactate dehydrogenase determination, reaction supernatants ([…]) were pipetted into the wells of 96-well plates, followed by the addition of […] lactate solution (36 mg/mL in PBS) and […] INT (iodonitrotetrazolium chloride, 2-(4-iodophenyl)-3-(4-nitrophenyl)-5-phenyl-2H-tetrazolium chloride) solution (2 mg/mL in PBS). The enzymatic reaction was started by addition of […] of NAD^+/diaphorase solution (3 mg/mL NAD^+; 2.3 mg solid/mL diaphorase). After 1 h, optical densities were measured with a microplate reader using a 490 nm filter. The amount of LDH released was expressed as a percentage of the value obtained in comparative cells where cells were 100% lysed by 1% Triton X-100.
Experiment 16 was designed to determine if apoptotic cell death of DOHH2 human B-cell carcinoma cells was induced by ATA, AQA, AHA, and ATAC as determined by the release of lactic dehydrogenase into the cell medium. The protocol was identical to that used in Experiment 9(d) except that DOHH2 human B-cell carcinoma cells were used.

Experiment [3] relates to K562 human chronic myelogenous leukemia cell line. In words: K562 cell growth in zymosan-activated human serum (MTT cell viability). It is filed as cell-based. As to the method: (§2) Experiment 1 was designed to determine the effect of ATA, AHA, AQA and ATAC on U251 cell growth in the presence of complement activated human serum. In Experiment 1(a), U251 cells were treated with various concentrations of human serum (1, 5, 7.5, 10, 12.5, 15%) in DMEM and incubated with 1 μg/mL zymosan at 37° C. for 72 h. Control U251 cells (CON) were incubated in fresh DMEM only. As a further control U251 cells were treated with 10% human serum heated at 56° C. for 30 min to heat inactivate complement (HIS) before incubation with 1 μg/ml zymosan. In Experiment 1(b), U251 cells were treated with various concentrations of ATAC, ATA, AQA and AHA (0.1, 1, 5, 10, 30, 50 μM) in DMEM with 15% human serum and incubated with 1 μg/mL zymosan at 37 ° C. for 72 h. In both Experiments 1(a) and 1(b), following incubation, cell viability was evaluated by MTT (3-[4,5-dimethylthiazol-2-yl]-2,5 diphenyl tetrazolium bromide) assays by adding MTT to the cell cultures to reach a final concentration of 1 mg/mL. Following a 1 h incubation at 37° C., the dark crystals formed were dissolved by adding a SDS/DMF extraction buffer (300 μL, 20% sodium dodecyl sulfate, 50% N,N-dimethylformamide, pH 4.7). Plates were subsequently incubated overnight at 37° C. and optical densities at 570 nm were measured by transferring 100 μL aliquots to 96-well plates and using a plate reader with a corresponding filter.
Experiment 17 was designed to determine the effect of ATA, AQA, AHA and ATAC on K562 human chronic myelogenous leukemia cell growth. The protocol was identical to that used in Experiment 15(b) except that K562 human chronic myelogenous were utilized and the growth medium was Iscove's.

Experiment [4] concerns A549 human lung cancer cell line. As to the kind of experiment: A549 cell growth in zymosan-activated human serum (MTT cell viability). It is filed as cell-based. As to conditions: A549 cells, 15% human serum, n=4, read-out: IC50, inhibition of A549 cell growth induced by zymosan-activated human serum complement. As to the method: as §2
Experiment 5 was designed to determine the effect of ATA, AHA, AQA and ATAC on BxPC-3 cell growth in the presence of complement activated human serum.
Experiment 9 was designed to determine the effect of ATA, AQA, AHA and ATAC on A549 cell growth. The protocol was identical to that used in Experiment 5(b) except A549 cells were used.

The test system of experiment [5] is DOHH2 human B-cell carcinoma cell line. As to the kind of experiment: DOHH2 cell growth in zymosan-activated human serum (MTT cell viability). It is filed as cell-based. Particulars: 15% human serum, n=4, read-out: IC50, inhibition of DOHH2 cell growth induced by zymosan-activated human serum complement. As to the method:
as §2
Experiment 15 was designed to determine the effect of ATA, AQA, 15 AHA and ATAC on DOHH2 human B-cell carcinoma cell growth. The protocol was identical to that used in Experiment 9(b) except DOHH2 human B-cell carcinoma cells were used.

For experiment [6], the system named is BT 474 human breast cancer cell line. In words: BT 474 cell growth in zymosan-activated human serum (MTT cell viability). Format: cell-based. Particulars: BT 474 cells, 15% human serum, n=4, read-out: IC50, inhibition of BT 474 cell growth induced by zymosan-activated human serum complement. As to the method:
as §2
Experiment 13 was designed to determine the effect of ATA, AQA, AHA and ATAC on BT 474 cell growth. The protocol was identical to that used in Experiment 1(b) except BT 474 cells were used.

In experiment [7] the test system is human colorectal cancer cell line SW 480. In words: SW 480 cell growth in zymosan-activated human serum (MTT cell viability). Format: cell-based. As to conditions: 15% human serum, n=4, read-out: IC50, inhibition of SW 480 cell growth induced by zymosan-activated human serum complement. As to the method: as §2
Experiment 23 was designed to determine the effect of ATA, AQA, 15 AHA and ATAC on growth of the human colorectal cancer cell line SW 480. The protocol was identical to that used in Experiment 15(b) except that human colorectal cancer SW480 cells were utilized. Experiment 24 was designed to determine if apoptotic death of human carcinoma SW 480 cells was induced by ATA, AQA, AHA, and ATAC as determined by the release of lactic dehydrogenase into the cell medium. The protocol was identical to that used in Experiment 15(d) except that human carcinoma SW480 cells were used and the growth medium was DMEM.

For experiment [8], the system named is U251 cells. In words: Lactic dehydrogenase release from U251 cells. Format: cell-based, human. Particulars: n=4, read-out: IC50, lactate dehydrogenase release from U251 cells. As to the method: as §1
[9] abbreviates: n=4, read-out: IC50, lactate dehydrogenase release from DOHH2 cells.
Setting [10] is: K562 cells, Iscove's medium, 15% human serum, zymosan, MTT, n=4, read-out: IC50, inhibition of K562 cell growth induced by zymosan-activated human serum complement.

With `O=C(O)C1=CC(=C(c2ccc(O)c(C(=O)O)c2)c2ccc(O)c(C(=O)O)c2)C=CC1=O` [ATA, aurin tricarboxylic acid], the 50% inhibitory concentration (IC50) in experiment [1] (U-251, U251 cells) is 3.5 µM; in experiment [2] (Homo sapiens, DOHH-2, n=4, read-out: IC50, lactate dehydrogenase release from DOHH2 cells), 4.9 µM; in experiment [3] (Homo sapiens, K562, read-out: IC50, inhibition of K562 cell growth induced by zymosan-activated human serum complement), 4.5 µM; in experiment [4] it was 7.2 µM; in experiment [5] (DOHH-2, DOHH2 cells), 5.1 µM; in experiment [6], 5.9 µM. Besides, the 50% inhibitory concentration (IC50) worked out at 7 µM in experiment [7] (SW480, SW 480 cells) and 7.6 µM in experiment [8] (Homo sapiens, U-251, LDH as % of Triton X-100 lysis).
Regarding aurin quadracarboxylic acid [AQA], the IC50 was determined as 3.7 µM in experiment [1] (U251 cells); 5 µM in experiment [2] (setting [9]); 4.7 µM in experiment [3] (setting [10]); 7.4 µM in experiment [4]; 5 µM in experiment [5] (DOHH2 cells); 6 µM in experiment [6]. Moreover, the IC50 is 7 µM in experiment [7] (SW 480 cells) and 7.4 µM in experiment [8] (LDH as % of Triton X-100 lysis).
Regarding aurin hexacarboxylic acid [AHA], the concentration for half-maximal inhibition (IC50) is 3.8 µM in experiment [1] (U251 cells); 5.1 µM in experiment [2] (setting [9]); 4.6 µM in experiment [3] (setting [10]); 7.5 µM in experiment [4]; 4.9 µM in experiment [5] (DOHH2 cells); 5.8 µM in experiment [6]. For the same molecule, the results for the IC50 in experiment [7] (SW 480 cells) and in experiment [8] (LDH as % of Triton X-100 lysis) were 6.8 µM and 7.7 µM, respectively.
